System: gramineous weeds, broadleaf weeds and sedge weeds
Assay: Post-emergence weed control efficacy test (potted plants, stem and leaf treatment; Colby evaluation)
Format: in vivo
From the text: The desired efficacy of the combination of three active compounds can be calculated through “Colby formula” as follows (S. R. Colby, “Calculating Synergistic and Antagonistic Responses of Herbicide Combinations, Weeds 1967, 15, 20-22): if
E0 is the anticipated activity of active compounds A, B and C when used in an amount of m, n, h g/ha or concentrate of m, n, h ppm, E0=A×B×C/(100^(N-1))
If the observed actual activity E is greater than the anticipated activity (E0), then the composition has synergistic effect.
If the observed actual efficiency of weed control (E) through the biology test is greater than the anticipated value (E0) as calculated via Colby's equation, then it represents that the efficacy of herbicidal composition is greater than the sum of efficacy of each component, which means the composition has synergistic effect.
Use stem and leaf treatment for potted grown plant(NY/T 1155.4-2006): fill a plastic pot (6 cm height, 9 cm diameter) with a quantity of soil and sow 15 to 20 seeds of monocotyledonous weeds and dicotyledonous weeds in the plastic pot, cover it with 0.5 to 1 cm thick of fine soil and then put it in greenhouse for cultivation. When weeds grow to the 2 to 4 leave stage, conduct the stem and leaf spray treatment with 1 mL herbicidal solution on each pot and repeat four times for each treatment and leave some pots untreated as control group. Keep the treated pots in a greenhouse for cultivation and observe the growing status of target weeds periodically. Conduct the visual test on the target weeds regarding the damage symptoms and growth inhibition effect after 21 days. Weigh up the fresh weight above the ground or plant fresh weight and evaluate the toxicity of the herbicidal formulation on target weeds based on the fresh weight inhibition rate of the target.
Prepare the following formulations according to specific weight percentages: 1. Pyroxasulfone; 2. Topramezone; 3 Atrazine; 4. Pyroxasulfone+Topramezone; 5. Pyroxasulfone+Atrazine; 6. Topramezone+Atrazine; 7. Pyroxasulfone+Topramezone+Atrazine. After that, dilute above formulations with water to obtain diluted formulations.
Conduct visual assessment the damage symptom and growth inhibition status of target weeds after 21 days. Weigh up the fresh weight above the ground and calculate the inhibition rate of fresh weight (%).
Anticipated effects of the special combined three active components can be calculated through so called “Colby formula”. If the actual efficiency of weed control observed during the biology test exceeds the anticipated value […] calculated by Colby's formula, then it represents that the efficacy of herbicidal composition is greater than the sum of efficacy of each component, which means the composition has synergistic effect.
The synergistic herbicidal composition of present invention has conducted test on the following important harmful plants (gramineous weeds, broadleaf weeds, sedge weeds) with wide herbicidal spectrum: Echinochloa oryzicola, Digitaria spp., Stellaria media, Amaranthus retroflexus, Fallopia (ex Polygonum) Convolvulus, Abuthilon theophrasti, Sagittariatrifolia, Oriental Waterplantain Rhizome, Herb of Pygmy Arrowhead, Monochoria korsakowii, Lindernia procumbens, Solanum nigrum L., Scirpus juncoides Roxb, Cyperus difformis L., Chenopodium alum L., Avena fatua L. and Galium aparine L. var. tenerum Gren. et (Godr.) Rebb.

Cc1c(C(=O)c2cnn(C)c2O)ccc(S(C)(=O)=O)c1C1=NOCC1 [Topramezone, [3-(4,5-dihydro-3-isoxazolyl)-2-methyl-4-(methylsulfonyl)phenyl](5-hydroxy-1-methyl-1H-pyrazol-4-yl)methanone]
Actual survival rate (application rate 1 g/ha): 87.8% | Actual survival rate (application rate 25 g/ha): 24.5% | Actual survival rate (application rate 50 g/ha): 12.8%

CCNc1nc(Cl)nc(NC(C)C)n1 [Atrazine, 2-chloro-4-ethylamino-6-isopropylamino-1,3,5-triazine]
Actual survival rate (application rate 1 g/ha): 100% | Actual survival rate (application rate 50 g/ha): 100% | Actual survival rate (application rate 100 g/ha): 67%

Cn1nc(C(F)(F)F)c(CS(=O)(=O)C2=NOC(C)(C)C2)c1OC(F)F [Pyroxasulfone, 3-[5-(difluoromethoxy)-1-methyl-3-(trifluoromethyl)pyrazol-4-ylmethylsulfonyl]-4,5-dihydro-5,5-dimthyl-1,2-oxazole]
Actual survival rate (application rate 1 g/ha): 89% | Actual survival rate (application rate 5 g/ha): 78% | Actual survival rate (application rate 10 g/ha): 60%
